Assay results from EP4201923A1, “5-SUBSTITUTED 2,3-DIHYDROPYRIDIN-4-ONES AND PROCESS FOR PREPARING THE SAME” (Karl-Franzens-Universität Graz, priority 2021, dated 2023).

Key:
[1] = tested on: MRC-5 cells; assay: Cytotoxicity assay using MRC-5 cells (XTT colorimetric cell viability); format: cell-based, human; conditions: solvent control DMSO 0.1 %
From the text: The results are expressed as cell metabolic activity in % of the solvent control.

[2] = tested on: Micrococcus luteus; assay: Antimicrobial activity, drop plate method assay; format: cell-based; parameters: key: high activity (++); medium activity (+); low activity (±); no activity(-); conditions: 10 µl of 1 mg/ml in DMSO dropped on seeded agar plate; read after approximately 10-16 h
Experimental: (§1) A drop plate method assay (Alajlani M et al. Chromatographia 2016, 79, 1527-1532.) with modification was performed to detect the antimicrobial activity against several bacteria strains. Investigated compounds (compounds of examples 1-7, 9) were dissolved in DMSO to a concentration of 1 mg/ml. Using sterile micropipette 10 µl of each compound was directly but gently dropped over seeded agar plate with test organism. The liquid was allowed to diffuse before the plate was inverted and incubated. The growth conditions for every strain were considered. The results were noted when a lawn of the indicator organism appeared on the plate (approximately 10-16 h). The magnitude of activity was noted as high activity (++), medium activity (+), low activity (±) and no activity(-). Not determined data are indicated with n.d. Table 3: Antimicrobial activities of compounds_were detected over the test organisms

[3] = tested on: Serratia sp; assay: Antimicrobial activity, drop plate method assay; format: cell-based; parameters: key: high activity (++); medium activity (+); low activity (±); no activity(-); conditions: 10 µl of 1 mg/ml in DMSO dropped on seeded agar plate; read after approximately 10-16 h
Experimental: as §1

[4] = tested on: Escherichia coli; assay: Antimicrobial activity, drop plate method assay; format: cell-based; parameters: key: high activity (++); medium activity (+); low activity (±); no activity(-); conditions: 10 µl of 1 mg/ml in DMSO dropped on seeded agar plate; read after approximately 10-16 h
Experimental: as §1

[5] = tested on: Pseudomonas fluorescens; assay: Antimicrobial activity, drop plate method assay; format: cell-based; parameters: key: high activity (++); medium activity (+); low activity (±); no activity(-); conditions: 10 µl of 1 mg/ml in DMSO dropped on seeded agar plate; read after approximately 10-16 h
Experimental: as §1

[6] = tested on: human CCRF-CEM leukemia cells; assay: Anticancer activity by cytotoxicity to human CCRF-CEM leukemia cells (XTT colorimetric cell viability); format: cell-based; conditions: solvent control DMSO 0.1 %
Experimental: Assays were performed using an established cancer cell line, human CCRF-CEM leukemia cells and cell viability determined as described above with a colorimetric assay using the tetrazolium salt XTT as reported (Moshin N et al. Monatshefte für Chemie 2018, 149, 801-812). The anticancer drug vinblastine, the solvent DMSO and the untreated cells are used as control. The compounds of examples 1 to 8 were investigated in concentrations of 5 µM and 50 µM. Table 2: Results for anticancer activity against CCRF-CEM cells expressed as cell metabolic activity in % of the solvent control The results are expressed as cell metabolic activity in % of the solvent control. […] Thus, the compounds of the present invention show a substantial anticancer activity.

Row | Compound | cell metabolic activity in % of the solvent control, mean ([1]; compound 5 µM) [%] | cell metabolic activity in % of the solvent control, mean ([1]; compound 50 µM) [%] | Antimicrobial activity, Micrococcus luteus [2] | Antimicrobial activity, Serratia sp [3] | Antimicrobial activity, Escherichia coli [4] | Antimicrobial activity, Pseudomonas fluorescens [5] | cell metabolic activity in % of the solvent control, mean ([6]; compound 5 µM) [%] | cell metabolic activity in % of the solvent control, mean ([6]; compound 50 µM) [%] | cell metabolic activity in % of the solvent control, mean ([1]; control substance at 100 nM) [%] | cell metabolic activity in % of the solvent control, mean ([6]; control substance at 100 nM) [%]
1 | CC1(C)CC(=O)C(C(c2ccccc2)N2CCCC2)=CN1 (racemic) [Example 1, (RS)-2,3-Dihydro-2,2-dimethyl-5-(phenyl(pyrrolidin-1-yl)methyl)pyridin-4(1H)-one] | 107.18 | 87.86 | + | ± | + | + | 88.69 | 9.02 |  | 
2 | CC1(C)CC(=O)C(C(c2ccccc2)N2CCCCC2)=CN1 (racemic) [Example 2, (RS)-2,3-Dihydro-2,2-dimethyl-5-(phenyl(piperidin-1-yl)methyl)pyridin-4(1H)-one] | 108.05 | 82.27 | + | ± | + | + | 88.18 | 8.75 |  | 
3 | CC1(C)CC(=O)C(C(c2ccc(F)cc2)N2CCOCC2)=CN1 (racemic) [Example 6, (RS)-2,3-Dihydro-2,2-dimethyl-5-((4-fluorphenyl)(morpholin-1-yl)methyl)pyridin-4 (1H) -one] | 105.36 | 89.35 |  | ± | + | ++ | 87.71 | 8.78 |  | 
4 | CC[C@]1(O)C[C@@H]2CN(CCc3c([nH]c4ccccc34)[C@@](C(=O)OC)(c3cc4c(cc3OC)N(C)[C@H]3[C@@](O)(C(=O)OC)[C@H](OC(C)=O)[C@]5(CC)C=CCN6CC[C@]43[C@@H]65)C2)C1 [Vinblastine, vinblastine, reference compound] |  |  |  |  |  |  |  |  | 51.88 | 9.06
5 | CC1(C)CC(=O)C(C(c2ccc(F)cc2)N2CCCC2)=CN1 (racemic) [Example 4, (RS)-2,3-Dihydro-2,2-dimethyl-5-((4-fluorphenyl)-(pyrrolidin-1-yl)methyl)pyridin-4(1H)-one] | 105.92 | 90.99 | + | + | ++ | + | 88.03 | 8.82 |  | 
6 | CC1(C)CC(=O)C(C(c2ccccc2C(F)(F)F)N2CCCC2)=CN1 (racemic) [Example 8, (RS)-2,3-Dihydro-2,2-dimethyl-5-((pyrrolidin-1-yl)-(2-trifluormethylphenyl)methyl)pyridin-4(1H)-one] | 103.65 | 67.08 |  |  |  |  | 52.06 | 8.46 |  | 
7 | Cc1ccc(C(C2=CNC(C)(C)CC2=O)N2CCCC2)cc1 (racemic) [Example 7, (RS)-2,3-Dihydro-2,2-dimethyl-5-((4-methylphenyl)-(pyrrolidin-1-yl)methyl)pyridin-4(1H)-one] | 100.07 | 88.41 |  | ± | + | ++ | 87.47 | 8.52 |  | 
8 | CC1(C)CC(=O)C(C(c2ccncc2)N2CCCC2)=CN1 (racemic) [Example 9, (RS)-2,3-Dihydro-2,2-dimethyl-5-((4-pyridyl)-(pyrrolidin-1-yl)methyl)pyridin-4(1H)-one] |  |  | + | ± | + |  |  |  |  | 
9 | CC1(C)CC(=O)C(C(c2ccccc2)N2CCOCC2)=CN1 (racemic) [Example 3, (RS)-2,3-Dihydro-2,2-dimethyl-5-(phenyl(morpholin-1-yl)methyl)pyridin-4(1H)-one] | 110.88 | 84.05 | ++ | ± | + | + | 93.13 | 10.98 |  | 
10 | CC(C)c1ccc(C(C2=CNC(C)(C)CC2=O)N2CCCC2)cc1 (racemic) [Example 5, (RS)-2,3-Dihydro-2,2-dimethyl-5-((4-isopropylphenyl)-(pyrrolidin-1-yl)methyl)pyridin-4(1H)-one] | 104.11 | 42.19 |  | ± | + | ++ | 75.36 | 8.72 |  | 
